Values after ≈ are worked out from the molar mass of the structure shown. Structures can show the parent of a compound that is named as a salt. Where two headings read alike, the source gives them in different places.
How the values were obtained:
S. aureus 870307 = test: Antibacterial activity (MIC), standard method of the Japanese Society of Chemotherapy; format: cell-based; conditions: Staphylococcus aureus
Experimental: (§1) Antibacterial activity of the compounds of the present invention was measured in accordance with the standard method designated by the Japanese Society of Chemotherapy. The results are shown in MIC values (μg/mL) (Table 1). For comparison with the MIC values of the compounds of the present invention, MIC values of levofloxacin (LVFX), ciprofloxacin (CPFX), and 7-[3-(R)-(1-aminocyclopropyl)pyrrolidin-1-yl]-8-cyano-1-[2-(S)-fluoro-1-(R)-cyclopropyl]-1,4-dihydro-4-oxoquinoline-3-carboxylic acid (control drug 1: represented by the following formula), which is described in International Publication WO 02/40478 pamphlet, are also shown in the table.

P. Vulgaris 08601 = test: as above; format: cell-based; conditions: Proteus vulgaris
Experimental: as §1

S. aureus FDA 209P = test: as above; format: cell-based; conditions: Staphylococcus aureus, FDA209P
Experimental: as §1

S. marcescens 10100 = test: as above; format: cell-based; conditions: Serratia marcescens
Experimental: as §1

S. flexneri 2A 5503 = test: as above; format: cell-based; conditions: Shigella flexneri, 2A5503
Experimental: as §1

E. faevcalis ATCC 19433 = test: as above; format: cell-based
Experimental: as §1

P. aeruginosa 32104 = test: as above; format: cell-based; conditions: Pseudomonas aeruginosa
Experimental: as §1

P. aeruginosa 32121 = test: as above; format: cell-based; conditions: Pseudomonas aeruginosa
Experimental: as §1

K. pneumoniae TYPE I = test: as above; format: cell-based; conditions: Klebsiella pneumoniae
Experimental: as §1

S. pneumoniae J24 = test: as above; format: cell-based; conditions: Streptococcus pneumoniae
Experimental: as §1

S. pyogenes G-36 = test: as above; format: cell-based; conditions: Streptococcus pyogenes, G36
Experimental: as §1

E. coli NIHJ = test: as above; format: cell-based; conditions: Escherichia coli
Experimental: as §1

S. maltophilia IID 1275 = test: as above; format: cell-based; conditions: Stenotrophomonas maltophilia, IID1275
Experimental: as §1

S. epidermidis 56500 = test: as above; format: cell-based; conditions: Staphylococcus epidermidis
Experimental: as §1

[1] = tested on: mouse bone marrow polychromatic erythrocytes; test: Mouse bone marrow micronucleus test; format: in vivo; conditions: male Slc:ddY mice, 24 hours after administration
Experimental: By use of compound Nos. 1 and 2, a mouse bone marrow micronucleus test was performed through the following method.
Groups of mice, each consisting of five, six-week-old, male Slc:ddY mice, were used. Compound Nos. 1 and 2 were dissolved in and diluted with 0.1 mol/L NaOH/saline. The medium; i.e., 0.1 mol/L NaOH/saline, was used as a control, and a drug solution which had been prepared by dissolving and diluting cyclophosphamide in saline was used as a positive control drug. All the drug solutions were disinfected through filtration by use of a Mylex GS 0.22 μm filter. Each drug solution was intravenously administered with a regimen of 10 mL/kg single dose at a rate of 0.2 mL/min (100 and 150 mg/kg). Twenty four hours after administration, […] were collected from the femur bone, the smear preparations were prepared, and these were stained with […].

[2] = S. aureus 870307, read-out: MIC
[3] = P. Vulgaris 08601, read-out: MIC
[4] = S. aureus FDA 209P, read-out: MIC
[5] = S. marcescens 10100, read-out: MIC
[6] = E. faevcalis ATCC 19433, read-out: MIC
[7] = P. aeruginosa 32104, read-out: MIC
[8] = P. aeruginosa 32121, read-out: MIC
[9] = K. pneumoniae TYPE I, read-out: MIC
[10] = S. pneumoniae J24, read-out: MIC
[11] = S. pyogenes G-36, read-out: MIC
[12] = S. maltophilia IID 1275, read-out: MIC
[13] = S. epidermidis 56500, read-out: MIC

SMILES | MIC (S. aureus 870307; [2]) [mg/L] | MIC (P. Vulgaris 08601; [3]) [mg/L] | MIC (S. aureus FDA 209P; [4]) [mg/L] | MIC (S. marcescens 10100; [5]) [mg/L] | MIC (S. flexneri 2A 5503) [mg/L] | MIC (E. faevcalis ATCC 19433; [6]) [mg/L] | MIC (P. aeruginosa 32104; [7]) [mg/L] | MIC (P. aeruginosa 32121; [8]) [mg/L] | MIC (K. pneumoniae TYPE I; [9]) [mg/L] | MIC (S. pneumoniae J24; [10]) [mg/L] | MIC (S. pyogenes G-36; [11]) [mg/L] | MIC (E. coli NIHJ; E. coli NIHJ, read-out: MIC) [mg/L] | MIC (S. maltophilia IID 1275; [12]) [mg/L] | MIC (S. epidermidis 56500; [13]) [mg/L] | other results
N#Cc1c(N2CC[C@@H](C3(N)CC3)C2)c(F)cc2c(=O)c(C(=O)O)cn(C3CC3)c12 (as salt: trifluoroacetate) (hydrate or solvate) [Compound No. 2, 7-[3-(R)-(1-Aminocyclopropyl)pyrrolidin-1-yl]-8-cyano-1-cyclopropyl-6-fluoro-1,4-dihydro-4-oxoquinoline-3-carboxylate] |  |  |  |  |  |  |  |  |  |  |  |  |  |  | melting point: 148 to 152 °C
N#Cc1c(N2CC[C@@H](C3(N)CC3)C2)c(F)cc2c(=O)c(C(=O)O)cn([C@@H]3C[C@@H]3F)c12 (hydrate or solvate) [Compound No. 1, 7-[3-(R)-(1-Aminocyclopropyl)pyrrolidin-1-yl]-8-cyano-6-fluoro-1-[2-(S)-fluoro-1-(R)-cyclopropyl]-1,4-dihydro-4-oxoquinoline-3-carboxylate] |  |  |  |  |  |  |  |  |  |  |  |  |  |  | melting point: 138 to 140 °C
O=C(O)c1cn(C2CC2)c2cc(N3CCNCC3)c(F)cc2c1=O [CPFX, ciprofloxacin, reference compound] | > 6.25 | ≤ 0.003 | 0.1 (≈ 0.302 µM) | 0.025 (≈ 0.0754 µM) | 0.006 (≈ 0.0181 µM) | 0.78 (≈ 2.35 µM) | 0.05 (≈ 0.151 µM) | 0.025 (≈ 0.0754 µM) | 0.025 (≈ 0.0754 µM) | 0.39 (≈ 1.18 µM) | 1.56 (≈ 4.71 µM) | ≤ 0.003 | 0.78 (≈ 2.35 µM) | 0.2 (≈ 0.604 µM) | 
N#Cc1c(N2CC[C@@H](C3(N)CC3)C2)ccc2c(=O)c(C(=O)O)cn([C@@H]3C[C@@H]3F)c12 [Control drug 1, 7-[3-(R)-(1-aminocyclopropyl)pyrrolidin-1-yl]-8-cyano-1-[2-(S)-fluoro-1-(R)-cyclopropyl]-1,4-dihydro-4-oxoquinoline-3-carboxylic acid, reference compound] | 0.39 (≈ 0.984 µM) | 0.025 (≈ 0.0631 µM) | 0.006 (≈ 0.0151 µM) | 0.1 (≈ 0.252 µM) | 0.012 (≈ 0.0303 µM) | 0.1 (≈ 0.252 µM) | 0.2 (≈ 0.505 µM) | 0.1 (≈ 0.252 µM) | 0.1 (≈ 0.252 µM) | 0.025 (≈ 0.0631 µM) | 0.025 (≈ 0.0631 µM) | 0.012 (≈ 0.0303 µM) | 0.78 (≈ 1.97 µM) | 0.05 (≈ 0.126 µM) | 
C[C@H]1COc2c(N3CCN(C)CC3)c(F)cc3c(=O)c(C(=O)O)cn1c23 [LVFX, levofloxacin, reference compound] | > 6.25 | 0.012 (≈ 0.0332 µM) | 0.2 (≈ 0.553 µM) | 0.1 (≈ 0.277 µM) | 0.025 (≈ 0.0692 µM) | 0.78 (≈ 2.16 µM) | 0.2 (≈ 0.553 µM) | 0.1 (≈ 0.277 µM) | 0.1 (≈ 0.277 µM) | 0.78 (≈ 2.16 µM) | 0.78 (≈ 2.16 µM) | 0.012 (≈ 0.0332 µM) | 0.39 (≈ 1.08 µM) | 0.39 (≈ 1.08 µM) | 
N#Cc1c(N2CC[C@@H](C3(N)CC3)C2)c(F)cc2c(=O)c(C(=O)O)cn([C@@H]3C[C@@H]3F)c12 [No. 1] | 0.05 (≈ 0.121 µM) | 0.006 (≈ 0.0145 µM) | ≤ 0.003 | 0.025 (≈ 0.0603 µM) | ≤ 0.003 | 0.025 (≈ 0.0603 µM) | 0.1 (≈ 0.241 µM) | 0.05 (≈ 0.121 µM) | 0.025 (≈ 0.0603 µM) | 0.006 (≈ 0.0145 µM) | 0.006 (≈ 0.0145 µM) | ≤ 0.003 | 0.2 (≈ 0.483 µM) | 0.006 (≈ 0.0145 µM) | difference in the micronucleus induction rate between the control and the administration group ([1]; 150 mg/kg intravenous single dose): no significant difference; micronucleus test judgment result ([1]; intravenous single dose, up to 150 mg/kg): negative
N#Cc1c(N2CC[C@@H](C3(N)CC3)C2)c(F)cc2c(=O)c(C(=O)O)cn(C3CC3)c12 [No. 2] | 0.05 (≈ 0.126 µM) | 0.006 (≈ 0.0151 µM) | ≤ 0.003 | 0.025 (≈ 0.0631 µM) | ≤ 0.003 | 0.025 (≈ 0.0631 µM) | 0.1 (≈ 0.252 µM) | 0.05 (≈ 0.126 µM) | 0.012 (≈ 0.0303 µM) | 0.006 (≈ 0.0151 µM) | 0.006 (≈ 0.0151 µM) | ≤ 0.003 | 0.1 (≈ 0.252 µM) | 0.012 (≈ 0.0303 µM) | 
CNC1([C@@H]2CCN(c3c(F)cc4c(=O)c(C(=O)O)cn([C@@H]5C[C@@H]5F)c4c3C#N)C2)CC1 [No. 3] |  |  |  |  | ≤ 0.003 |  |  |  |  |  |  |  |  |  | MIC (S. aureus 870307; 870307): 0.025 mg/L (≈ 0.0584 µM); MIC (P. Vulgaris 08601): 0.012 mg/L (≈ 0.028 µM); MIC (S. aureus FDA 209P): 0.006 mg/L (≈ 0.014 µM); MIC (S. marcescens 10100; 10100): 0.05 mg/L (≈ 0.117 µM); MIC (E. faevcalis ATCC 19433): 0.05 mg/L (≈ 0.117 µM); MIC (P. aeruginosa 32104; 32104): 0.1 mg/L (≈ 0.233 µM); MIC (P. aeruginosa 32121; 32121): 0.05 mg/L (≈ 0.117 µM); MIC (K. pneumoniae TYPE I): 0.025 mg/L (≈ 0.0584 µM); MIC (S. pneumoniae J24; J24): 0.006 mg/L (≈ 0.014 µM); MIC (S. pyogenes G-36): 0.006 mg/L (≈ 0.014 µM); MIC (E. coli NIHJ): ≤ 0.003 mg/L; MIC (S. maltophilia IID 1275): 0.1 mg/L (≈ 0.233 µM); MIC (S. epidermidis 56500; 56500): 0.012 mg/L (≈ 0.028 µM)
CCNC1([C@@H]2CCN(c3c(F)cc4c(=O)c(C(=O)O)cn([C@@H]5C[C@@H]5F)c4c3C#N)C2)CC1 [No. 4] |  |  |  |  | 0.006 (≈ 0.0136 µM) |  |  |  |  |  |  |  |  |  | MIC (S. aureus 870307; 870307): 0.025 mg/L (≈ 0.0565 µM); MIC (P. Vulgaris 08601): 0.012 mg/L (≈ 0.0271 µM); MIC (S. aureus FDA 209P): 0.006 mg/L (≈ 0.0136 µM); MIC (S. marcescens 10100; 10100): 0.1 mg/L (≈ 0.226 µM); MIC (E. faevcalis ATCC 19433): 0.05 mg/L (≈ 0.113 µM); MIC (P. aeruginosa 32104; 32104): 0.2 mg/L (≈ 0.452 µM); MIC (P. aeruginosa 32121; 32121): 0.1 mg/L (≈ 0.226 µM); MIC (K. pneumoniae TYPE I): 0.025 mg/L (≈ 0.0565 µM); MIC (S. pneumoniae J24; J24): 0.006 mg/L (≈ 0.0136 µM); MIC (S. pyogenes G-36): 0.025 mg/L (≈ 0.0565 µM); MIC (E. coli NIHJ): 0.006 mg/L (≈ 0.0136 µM); MIC (S. maltophilia IID 1275): 0.2 mg/L (≈ 0.452 µM); MIC (S. epidermidis 56500; 56500): 0.006 mg/L (≈ 0.0136 µM)

Source: US7723524B2, “8-cyanoquinolonecarboxylic acid derivative” (Daiichi Pharmaceutical Co., Ltd., priority 2003, dated 2010)
